Read-outs that look alike come from different tables or passages of the source.
Legend:
HCC1806 = experiment: Cell viability assay (CellTiter-Glo); type: cell-based, Human; settings: read-out: IC50 (nM) in cell viability assay
PARG = PARG (Homo sapiens, UniProt Q86W56); experiment: Biochemical assay (PARG, TFMU-ADPr substrate)
[1] = Homo sapiens, HCC1806, 168 h, HCC1806, 7 days, CellTiter-Glo
[2] = 4 nM PARG, 66.2 uM TFMU-ADPr, 3 min at room temperature

Sequence of PARG (Q86W56 whole entry): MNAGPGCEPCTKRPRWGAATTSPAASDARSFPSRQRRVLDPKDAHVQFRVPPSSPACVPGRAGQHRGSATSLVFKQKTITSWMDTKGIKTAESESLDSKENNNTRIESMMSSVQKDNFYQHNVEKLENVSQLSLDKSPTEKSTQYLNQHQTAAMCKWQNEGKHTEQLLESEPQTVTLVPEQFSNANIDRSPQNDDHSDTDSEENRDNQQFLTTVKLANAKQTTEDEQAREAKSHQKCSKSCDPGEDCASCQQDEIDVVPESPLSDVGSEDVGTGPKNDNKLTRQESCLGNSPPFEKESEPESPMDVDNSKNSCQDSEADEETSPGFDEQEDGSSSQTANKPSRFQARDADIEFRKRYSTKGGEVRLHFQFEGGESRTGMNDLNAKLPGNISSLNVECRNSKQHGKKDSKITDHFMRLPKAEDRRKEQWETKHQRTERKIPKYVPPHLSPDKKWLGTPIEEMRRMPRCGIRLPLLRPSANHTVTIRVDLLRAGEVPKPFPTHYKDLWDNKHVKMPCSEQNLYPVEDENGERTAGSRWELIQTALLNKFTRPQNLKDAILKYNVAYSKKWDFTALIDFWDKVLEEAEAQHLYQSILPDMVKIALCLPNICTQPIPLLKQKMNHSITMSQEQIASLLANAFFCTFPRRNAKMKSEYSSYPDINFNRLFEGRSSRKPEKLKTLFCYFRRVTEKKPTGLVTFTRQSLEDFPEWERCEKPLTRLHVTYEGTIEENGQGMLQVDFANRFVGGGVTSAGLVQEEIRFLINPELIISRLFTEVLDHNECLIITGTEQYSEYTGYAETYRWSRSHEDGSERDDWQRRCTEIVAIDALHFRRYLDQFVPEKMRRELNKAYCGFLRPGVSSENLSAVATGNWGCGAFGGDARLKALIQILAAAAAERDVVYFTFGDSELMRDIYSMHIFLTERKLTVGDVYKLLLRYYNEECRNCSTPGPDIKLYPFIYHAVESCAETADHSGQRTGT

Row | SMILES | IC50 (HCC1806; HCC1806, 7 days, CellTiter-Glo) [nM] | IC50 (HCC1806; [1]) [nM] | IC50 (PARG; [2]) [nM] | IC50 (PARG; PARG, TFMU-ADPr substrate) [nM] | IC50 (HCC1806; Homo sapiens, HCC1806, 168 h) [nM]
1 | Cn1nccc1C1C=C(c2cc(S(=O)(=O)NC3(C#N)CC3)cn3c(-c4nnc(C(F)F)s4)nnc23)CC1 (stereo not drawn) [Example 367, N-(1-cyanocyclopropyl)-3-(5-(difluoromethyl)-1,3,4-thiadiazol-2-yl)-8-(3-(1-methyl-1H-pyrazol-5-yl)cyclopent-1-en-1-yl)-[1,2,4]triazolo[4,3-a]pyridine-6-sulfonamide] | 6780 | 5000 to 30000 | < 100 | 32.8 | –
2 | CC(C)C(=O)N1CC=C(c2cc(S(=O)(=O)NC3(C#N)CC3)cn3c(-c4nnc(C(F)(F)F)s4)ncc23)CC1 [Example 368, N-(1-cyanocyclopropyl)-8-(1-isobutyryl-1,2,3,6-tetrahydropyridin-4-yl)-3-(5-(trifluoromethyl)-1,3,4-thiadiazol-2-yl)imidazo[1,5-a]pyridine-6-sulfonamide] | – | 900 | – | 13.8 | –
3 | N#CC1(NS(=O)(=O)c2cc(C3=CCN(S(=O)(=O)C4CC4)CC3)c3cnc(-c4nnc(C(F)(F)F)s4)n3c2)CC1 [Example 369, N-(1-cyanocyclopropyl)-8-(1-(cyclopropylsulfonyl)-1,2,3,6-tetrahydropyridin-4-yl)-3-(5-(trifluoromethyl)-1,3,4-thiadiazol-2-yl)imidazo[1,5-a]pyridine-6-sulfonamide] | – | 505 | – | 1.91 | –
4 | CC(=O)N1CC=C(c2cc(S(=O)(=O)NC3(C#N)CC3)cn3c(-c4nnc(C(F)(F)F)s4)ncc23)CC1 [Example 370, 8-(1-acetyl-1,2,3,6-tetrahydropyridin-4-yl)-N-(1-cyanocyclopropyl)-3-(5-(trifluoromethyl)-1,3,4-thiadiazol-2-yl)imidazo[1,5-a]pyridine-6-sulfonamide] | – | 240 | – | 41.7 | –
5 | N#CC1(NS(=O)(=O)c2cc(C3=CCN(C(=O)C4(O)CC4)CC3)c3cnc(-c4nnc(C(F)(F)F)s4)n3c2)CC1 [Example 371, N-(1-cyanocyclopropyl)-8-(1-(1-hydroxycyclopropane-1-carbonyl)-1,2,3,6-tetrahydropyridin-4-yl)-3-(5-(trifluoromethyl)-1,3,4-thiadiazol-2-yl)imidazo[1,5-a]pyridine-6-sulfonamide] | – | 360 | – | 4.57 | –
6 | N#CC1(NS(=O)(=O)c2cc(C3CCN(C(=O)C4(O)CC4)CC3)c3cnc(-c4nnc(C(F)(F)F)s4)n3c2)CC1 [Example 372, N-(1-cyanocyclopropyl)-8-(1-(1-hydroxycyclopropane-1-carbonyl)piperidin-4-yl)-3-(5-(trifluoromethyl)-1,3,4-thiadiazol-2-yl)imidazo[1,5-a]pyridine-6-sulfonamide] | – | 580 | – | 3.8 | –
7 | COC1(C(=O)N2CCC(c3cc(S(=O)(=O)NC4(C#N)CC4)cn4c(-c5nnc(C(F)(F)F)s5)ncc34)CC2)CC1 [Example 373, N-(1-cyanocyclopropyl)-8-(1-(1-methoxycyclopropane-1-carbonyl)piperidin-4-yl)-3-(5-(trifluoromethyl)-1,3,4-thiadiazol-2-yl)imidazo[1,5-a]pyridine-6-sulfonamide] | – | 21.1 | – | 3.31 | –
8 | CC1(NS(=O)(=O)c2cc(C3=CCN(S(C)(=O)=O)CC3)c3cnc(-c4nnc(C(F)(F)F)s4)n3c2)CC1 [Example 377, N-(1-methylcyclopropyl)-8-(1-(methylsulfonyl)-1,2,3,6-tetrahydropyridin-4-yl)-3-(5-(trifluoromethyl)-1,3,4-thiadiazol-2-yl)imidazo[1,5-a]pyridine-6-sulfonamide] | – | 60 | – | 1.41 | –
9 | Cn1nccc1C1CCC(c2cc(S(=O)(=O)NC3(C#N)CC3)cn3c(-c4nnc(C(F)F)s4)nnc23)C1 (stereo not drawn) [Example 378, N-(1-cyanocyclopropyl)-3-(5-(difluoromethyl)-1,3,4-thiadiazol-2-yl)-8-(3-(1-methyl-1H-pyrazol-5-yl)cyclopentyl)-[1,2,4]triazolo[4,3-a]pyridine-6-sulfonamide] | 6000 | 5000 to 30000 | < 100 | 27.7 | –
10 | COC1(C(=O)N2CC=C(c3cc(S(=O)(=O)NC4(C#N)CC4)cn4c(-c5nnc(C(F)(F)F)s5)ncc34)CC2)CC1 [Example 379, N-(1-cyanocyclopropyl)-8-(1-(1-methoxycyclopropane-1-carbonyl)-1,2,3,6-tetrahydropyridin-4-yl)-3-(5-(trifluoromethyl)-1,3,4-thiadiazol-2-yl)imidazo[1,5-a]pyridine-6-sulfonamide] | – | 20 | – | 2.09 | –
11 | N#CC1(NS(=O)(=O)c2cc(N3CCN(C(=O)C4(OCC(=O)O)CC4)CC3)c3cnc(-c4nnc(C(F)F)s4)n3c2)CC1 [Example 381, 2-(1-(4-(6-(N-(1-cyanocyclopropyl)sulfamoyl)-3-(5-(difluoromethyl)-1,3,4-thiadiazol-2-yl)imidazo[1,5-a]pyridin-8-yl)piperazine-1-carbonyl)cyclopropoxy)acetic acid] | – | 3630 | – | 27.1 | –
12 | CC1(NS(=O)(=O)c2cc(N3CCN(C(=O)C4(OCC(=O)O)CC4)CC3)c3cnc(-c4nnc(C(F)F)s4)n3c2)CC1 [Example 382, 2-(1-(4-(3-(5-(difluoromethyl)-1,3,4-thiadiazol-2-yl)-6-(N-(1-methylcyclopropyl)sulfamoyl)imidazo[1,5-a]pyridin-8-yl)piperazine-1-carbonyl)cyclopropoxy)acetic acid] | – | 828 | – | 6.55 | –
13 | CC1(NS(=O)(=O)c2cc(N3CCN(C(=O)C4(OCCO)CC4)CC3)c3cnc(-c4nnc(C(F)(F)F)s4)n3c2)CC1 [Example 383, 8-(4-(1-(2-hydroxyethoxy)cyclopropane-1-carbonyl)piperazin-1-yl)-N-(1-methylcyclopropyl)-3-(5-(trifluoromethyl)-1,3,4-thiadiazol-2-yl)imidazo[1,5-a]pyridine-6-sulfonamide] | – | 14.8 | – | 0.25 | –
14 | CN(C)CCOC1(C(=O)N2CCN(c3cc(S(=O)(=O)NC4(C)CC4)cn4c(-c5nnc(C(F)(F)F)s5)ncc34)CC2)CC1 [Example 384, 8-(4-(1-(2-(dimethylamino)ethoxy)cyclopropane-1-carbonyl)piperazin-1-yl)-N-(1-methylcyclopropyl)-3-(5-(trifluoromethyl)-1,3,4-thiadiazol-2-yl)imidazo[1,5-a]pyridine-6-sulfonamide] | – | 17.6 | – | < 0.15 | –
15 | CN(C)CCCOC1(C(=O)N2CCN(c3cc(S(=O)(=O)NC4(C)CC4)cn4c(-c5nnc(C(F)(F)F)s5)ncc34)CC2)CC1 [Example 385, 8-(4-(1-(3-(dimethylamino)propoxy)cyclopropane-1-carbonyl)piperazin-1-yl)-N-(1-methylcyclopropyl)-3-(5-(trifluoromethyl)-1,3,4-thiadiazol-2-yl)imidazo[1,5-a]pyridine-6-sulfonamide] | – | – | – | 0.48 | 40
16 | C[C@@H]1CN(c2cc(S(=O)(=O)NC3CC3)cn3c(-c4nnc(C(F)(F)F)s4)nnc23)CCN1C(=O)C1(C)CC1 [Example 386, (R)—N-cyclopropyl-8-(3-methyl-4-(1-methylcyclopropane-1-carbonyl)piperazin-1-yl)-3-(5-(trifluoromethyl)-1,3,4-thiadiazol-2-yl)-[1,2,4]triazolo[4,3-a]pyridine-6-sulfonamide] | – | 7880 | – | 263 | –

Reference: patent US20260258035A1, “FIVE-MEMBERED AND SIX-MEMBERED NITROGEN-CONTAINING COMPOUND, AND INTERMEDIATE, PREPARATION METHOD AND USE THEREOF” (HANGZHOU SYNRX THERAPEUTICS BIOMEDICAL TECHNOLOGY CO., LTD., priority 2022, published 2026)
